Some results are limits rather than exact numbers.

The assay deals with RORγt (Homo sapiens (Human), UniProt P51449). Description: Gal4 ligand binding assay (RORγt Gal fusion luciferase reporter assay in HEK293T cells). The assay is classed as cell-based. As to conditions: RORγt inverse agonists in RORγt Gal fusion assay. The procedure, abridged: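 Stable HEK293T line expressing the receptor fused to the Gal4 DBD, with a Gal4 UAS-driven luciferase; constitutively active, so agonism and inverse agonism both register. 10-point 1:3 titrations, 60 μM to 3 nM as prepared in media (added as 2×), 0.2% final DMSO; 24 h at 37 °C. Luminescence normalised to vehicle-only wells.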
Sequence of RORγt (P51449 269-508): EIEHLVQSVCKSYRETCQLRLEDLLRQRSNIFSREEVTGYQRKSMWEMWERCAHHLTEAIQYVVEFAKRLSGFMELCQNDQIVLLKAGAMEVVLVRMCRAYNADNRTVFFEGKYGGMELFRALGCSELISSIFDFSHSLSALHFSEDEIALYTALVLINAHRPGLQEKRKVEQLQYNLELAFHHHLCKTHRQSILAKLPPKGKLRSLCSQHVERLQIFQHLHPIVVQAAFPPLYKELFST
Background: Reporter assays use an easily measured gene product as a stand-in for the process of interest.
One may read the IC50 as the point on the concentration scale where inhibition reaches its midpoint. `Cc1cc(C(O)(C(F)(F)F)C(F)(F)F)ccc1-c1cc(F)c(CN2CC3(C2)CN(S(C)(=O)=O)C3)cc1C(C)C` [Example 79, 1,1,1,3,3,3-hexafluoro-2-(5′-fluoro-2′-isopropyl-2-methyl-4′-((6-(methylsulfonyl)-2,6-diazaspiro[3.3]heptan-2-yl)methyl)-[1,1′-biphenyl]-4-yl)propan-2-ol] came in with an IC50 of less than 50 nM.

In turn, `CCc1cc(CN2CC3(CSC3)C2)ccc1-c1ccc(C(O)(C(F)(F)F)C(F)(F)F)cc1` [Example 28, 2-(4′-((2-thia-6-azaspiro[3.3]heptan-6-yl)methyl)-2′-ethyl-[1,1′-biphenyl]-4-yl)-1,1,1,3,3,3-hexafluoropropan-2-ol] had a half-inhibitory concentration (IC50) of more than 250 nM.

As to `CS(=O)(=O)N1CC2(CN(Cc3cc(F)c(-c4ccc(C(O)(C(F)(F)F)C(F)(F)F)cc4F)c(C4CC4)c3F)C2)C1` [Example 91, 2-(2′-cyclopropyl-2,3′,6′-trifluoro-4′-((6-(methylsulfonyl)-2,6-diazaspiro[3.3]heptan-2-yl)methyl)-[1,1′-biphenyl]-4-yl)-1,1,1,3,3,3-hexafluoropropan-2-ol], the IC50 is less than 50 nM.

On to `CS(=O)(=O)N1CC2(CN(Cc3cc(F)c(-c4ccc(C(O)(C(F)(F)F)C(F)(F)F)cc4Cl)c(C4CC4)c3F)C2)C1` [Example 92, 2-(2-chloro-2′-cyclopropyl-3′,6′-difluoro-4′-((6-(methylsulfonyl)-2,6-diazaspiro[3.3]heptan-2-yl)methyl)-[1,1′-biphenyl]-4-yl)-1,1,1,3,3,3-hexafluoropropan-2-ol], for which the IC50 is less than 50 nM.

Take `CCc1cc(C(O)(C(F)(F)F)C(F)(F)F)ccc1-c1c(F)cc(CN2CC3(C2)CN(S(C)(=O)=O)C3)c(F)c1C1CC1` [Example 90, 2-(2′-cyclopropyl-2-ethyl-3′,6′-difluoro-4′-((6-(methylsulfonyl)-2,6-diazaspiro[3.3]heptan-2-yl)methyl)-[1,1′-biphenyl]-4-yl)-1,1,1,3,3,3-hexafluoropropan-2-ol]: the IC50 is less than 50 nM.

For the origin of these results see patent US11242350B2, “Spirocyclic ROR-gamma modulators” (Escalier Biosciences B.V., priority 2018, dated 2022).
